Assay results: BindingDB's records for doi:10.3109/14756366.2011.604851 (Shandong University, 2012)

Experiments:
Gag-Pol polyprotein [1] = target: T1, Gag-Pol polyprotein (Human immunodeficiency virus type 1 group M subtype B (isolate HXB2), UniProt P04585); experiment: 3'-P Inhibitory Assay
Description: Cleavage of a dinucleotide from each 3'-end of viral cDNA. All biological assays were performed essentially as previously described [Dayam et al., J. Med. Chem., 51:1136-1144].

Gag-Pol polyprotein [2] = target: T1, Gag-Pol polyprotein; experiment: ST Inhibitory Assay
Description: Insertion of two newly processed 3'-viral DNA ends into the host-cell chromosome. All biological assays were performed essentially as previously described [Dayam et al., J. Med. Chem., 51:1136-1144].

SMILES	IC50 (Gag-Pol polyprotein [1])	IC50 (Gag-Pol polyprotein [2])
CC(=O)Oc1cc(C(=O)Nc2ccc(S(=O)(=O)Nc3ccccc3Br)cc2)cc(OC(C)=O)c1OC(C)=O [N-(4-(2-Bromophenylsulfamoyl)phenyl)-3,4,5-triacetoxybenzamide (8g)]	12 µM	3 µM
O=C(/C=C/c1ccc(O)c(O)c1)Nc1ccc(S(=O)(=O)Nc2ccc(F)c(F)c2)cc1 [(E)-3-(3,4-Dihydroxyphenyl)-N-(4-(3,4-Difluorophenylsulfamoyl)phenyl)acrylamide (11b)]	11 µM	6 µM
CCOc1ccc(NS(=O)(=O)c2ccc(NC(=O)c3cc(O)c(O)c(O)c3)cc2)cc1 [N-(4-(4-Ethoxylphenylsulfamoyl)phenyl)galloylamide (9j)]	6 µM	1.3 µM
O=C(Nc1ccc(S(=O)(=O)Nc2ccccc2)cc1)c1cc(O)c(O)c(O)c1 [N-(4-Phenylsulfamoylphenyl)galloylamide (9m)]	7 µM	1.5 µM
CC(=O)Oc1ccc(/C=C/C(=O)Nc2ccc(S(=O)(=O)Nc3cccc(Cl)c3F)cc2)cc1OC(C)=O [(E)-3-(3,4-Diacetoxyphenyl)-N-(4-(3-chloro-2-fluorophenylsulfamoyl)phenyl)acrylamide (10l)]	50 µM	13 µM
O=C(/C=C/c1ccc(O)c(O)c1)Nc1ccc(S(=O)(=O)Nc2ccc(F)cc2)cc1 [(E)-3-(3,4-Dihydroxyphenyl)-N-(4-(4-Fluorophenylsulfamoyl)phenyl)acrylamide (11a)]	8 µM	5 µM
CC(=O)Oc1ccc(/C=C/C(=O)Nc2ccc(S(=O)(=O)Nc3cc(C)cc(C)c3)cc2)cc1OC(C)=O [(E)-3-(3,4-Diacetoxyphenyl)-N-(4-(3,5-Dimethylphenylsulfamoyl)phenyl)acrylamide (10k)]	80 µM	16 µM
O=C(Nc1ccc(S(=O)(=O)Nc2ccc([N+](=O)[O-])cc2)cc1)c1cc(O)c(O)c(O)c1 [N-(4-(4-Nitrophenylsulfamoyl)phenyl)galloylamide (9r)]	4 µM	3 µM
O=C(/C=C/c1ccc(O)c(O)c1)Nc1ccc(S(=O)(=O)Nc2ccc(F)c(Br)c2)cc1 [(E)-3-(3,4-Dihydroxyphenyl)-N-(4-(3-bromo-4-fluorophenylsulfamoyl)phenyl)acrylamide (11u)]	8 µM	4 µM
CC(=O)Oc1ccc(/C=C/C(=O)Nc2ccc(S(=O)(=O)Nc3ccc(Cl)c(Cl)c3)cc2)cc1OC(C)=O [(E)-3-(3,4-Diacetoxyphenyl)-N-(4-(3,4-Dichlorophenylsulfamoyl)phenyl)acrylamide (10h)]	75 µM	7 µM
O=C(/C=C/c1ccc(O)c(O)c1)Nc1ccc(S(=O)(=O)NCCc2ccc(F)cc2)cc1 [(E)-3-(3,4-Dihydroxyphenyl)-N-(4-(4-Fluorophenethylsulfamoyl)phenyl)acrylamide (11t)]	14 µM	10 µM
O=C(/C=C/c1ccc(O)c(O)c1)Nc1ccc(S(=O)(=O)Nc2ccccc2)cc1 [(E)-3-(3,4-Dihydroxyphenyl)-N-(4-phenylsulfamoylphenyl)acrylamide (11m)]	16 µM	12 µM
O=C(Nc1ccc(S(=O)(=O)NCc2ccc(Cl)cc2)cc1)c1cc(O)c(O)c(O)c1 [N-(4-(4-Chlorobenzylsulfamoyl)phenyl)galloylamide (9o)]	5 µM	2 µM
CCCCc1ccc(NS(=O)(=O)c2ccc(NC(=O)/C=C/c3ccc(O)c(O)c3)cc2)cc1 [(E)-3-(3,4-Dihydroxyphenyl)-N-(4-(4-Butylphenylsulfamoyl)phenyl)acrylamide (11i)]	25 µM	7 µM
O=C(Nc1ccc(S(=O)(=O)Nc2cccc(Br)c2)cc1)c1cc(O)c(O)c(O)c1 [N-(4-(3-Bromophenylsulfamoyl)phenyl)galloylamide (9f)]	2 µM	0.7 µM
O=C(Nc1ccc(S(=O)(=O)NCc2ccc(F)cc2)cc1)c1cc(O)c(O)c(O)c1 [N-(4-(4-Fluorobenzylsulfamoyl)phenyl)galloylamide (9d)]	7 µM	2 µM
O=C(/C=C/c1ccc(O)c(O)c1)Nc1ccc(S(=O)(=O)Nc2ccccc2Br)cc1 [(E)-3-(3,4-Dihydroxyphenyl)-N-(4-(2-Bromophenylsulfamoyl)phenyl)acrylamide (11g)]	11 µM	9 µM
CC(=O)Oc1cc(C(=O)Nc2ccc(S(=O)(=O)Nc3cccc(Cl)c3F)cc2)cc(OC(C)=O)c1OC(C)=O [N-(4-(3-chloro-2-fluorophenylsulfamoyl)phenyl)-3,4,5-triacetoxybenzamide (8l)]	5 µM	2 µM
Cc1ccccc1NS(=O)(=O)c1ccc(NC(=O)c2cc(O)c(O)c(O)c2)cc1 [N-(4-(2-Methylphenylsulfamoyl)phenyl)galloylamide (9s)]	7 µM	2 µM
O=C(/C=C/c1ccc(O)c(O)c1)Nc1ccc(S(=O)(=O)Nc2ccc(Cl)c(Cl)c2)cc1 [(E)-3-(3,4-Dihydroxyphenyl)-N-(4-(3,4-Dichlorophenylsulfamoyl)phenyl)acrylamide (11h)]	17 µM	6 µM

SMILES	IC50 (Gag-Pol polyprotein [1])	IC50 (Gag-Pol polyprotein [2])
O=C(Nc1ccc(S(=O)(=O)Nc2ccc(Cl)c(Cl)c2)cc1)c1cc(O)c(O)c(O)c1 [N-(4-(3,4-Dichlorophenylsulfamoyl)phenyl)galloylamide (9h)]	5 µM	1.7 µM
O=C(/C=C/c1ccc(O)c(O)c1)Nc1ccc(S(=O)(=O)NCc2ccc(F)cc2)cc1 [(E)-3-(3,4-Dihydroxyphenyl)-N-(4-(4-Fluorobenzylsulfamoyl)phenyl)acrylamide (11d)]	24 µM	9 µM
O=C(Nc1ccc(S(=O)(=O)Nc2ccccc2)cc1)c1ccc(O)c(O)c1 [N-(4-phenylsulfamoylphenyl)3,4-dihydroxybenzamidebenzamide (11w)]	100 µM	50 µM
CCCCc1ccc(NS(=O)(=O)c2ccc(NC(=O)c3cc(O)c(O)c(O)c3)cc2)cc1 [N-(4-(4-Butylphenylsulfamoyl)phenyl)galloylamide (9i)]	3 µM	2.5 µM
O=C(/C=C/c1ccc(O)c(O)c1)Nc1ccc(S(=O)(=O)Nc2ccc(Br)cc2)cc1 [(E)-3-(3,4-Dihydroxyphenyl)-N-(4-(4-Bromophenylsulfamoyl)phenyl)acrylamide (11e)]	35 µM	8 µM
O=C(Nc1ccc(S(=O)(=O)Nc2cccc(Br)c2)cc1)c1ccc(O)c(O)c1 [N-(4-(3-Bromophenylsulfamoyl)phenyl)3,4-dihydroxybenzamide (11x)]	45 µM	15 µM
Cc1cc(C)cc(NS(=O)(=O)c2ccc(NC(=O)/C=C/c3ccc(O)c(O)c3)cc2)c1 [(E)-3-(3,4-Dihydroxyphenyl)-N-(4-(3,5-Dimethylphenylsulfamoyl)phenyl)acrylamide (11k)]	5 µM	4 µM
CC(=O)Oc1cc(C(=O)Nc2ccc(S(=O)(=O)Nc3ccccc3C)cc2)cc(OC(C)=O)c1OC(C)=O [N-(4-(2-Methylphenylsulfamoyl)phenyl)-3,4,5-triacetoxybenzamide (8s)]	> 10 µM	1.6 µM
O=C(/C=C/c1ccc(O)c(O)c1)Nc1ccc(S(=O)(=O)Nc2ccc(F)c(Cl)c2)cc1 [(E)-3-(3,4-Dihydroxyphenyl)-N-(4-(3-chloro-4-fluorophenylsulfamoyl)phenyl)acrylamide (11v)]	8 µM	4 µM
O=C(Nc1ccc(S(=O)(=O)Nc2ccc(F)cc2)cc1)c1cc(O)c(O)c(O)c1 [N-(4-(4-Fluorophenylsulfamoyl)phenyl)galloylamide (9a)]	7 µM	0.9 µM
O=C(Nc1ccc(S(=O)(=O)Nc2ccc(Br)cc2)cc1)c1cc(O)c(O)c(O)c1 [N-(4-(4-Bromophenylsulfamoyl)phenyl)galloylamide (9e)]	3 µM	0.7 µM
CC(=O)Oc1cc(C(=O)Nc2ccc(S(=O)(=O)Nc3ccccc3)cc2)cc(OC(C)=O)c1OC(C)=O [N-(4-Phenylsulfamoylphenyl)-3,4,5-triacetoxybenzamide (8m)]	8 µM	1.6 µM
O=C(Nc1ccc(S(=O)(=O)Nc2cccc(Cl)c2F)cc1)c1cc(O)c(O)c(O)c1 [N-(4-(3-chloro-2-fluorophenylsulfamoyl)phenyl)galloylamide (9l)]	1.3 µM	0.8 µM
O=C(/C=C/c1ccc(O)c(O)c1)Nc1ccc(S(=O)(=O)Nc2cccc(Cl)c2F)cc1 [(E)-3-(3,4-Dihydroxyphenyl)-N-(4-(3-chloro-2-fluorophenylsulfamoyl)phenyl)acrylamide (11l)]	22 µM	14 µM
O=C(Nc1ccc(S(=O)(=O)Nc2ccccc2Br)cc1)c1cc(O)c(O)c(O)c1 [N-(4-(2-Bromophenylsulfamoyl)phenyl)galloylamide (9g)]	5 µM	1.4 µM
Cc1ccc(NS(=O)(=O)c2ccc(NC(=O)c3cc(O)c(O)c(O)c3)cc2)cc1C [N-(4-(3,4-Dimethylphenylsulfamoyl)phenyl)galloylamide (9p)]	8 µM	8 µM
COc1ccc(NS(=O)(=O)c2ccc(NC(=O)c3cc(O)c(O)c(O)c3)cc2)cc1 [N-(4-(4-Methoxylphenylsulfamoyl)phenyl)galloylamide (9q)]	5 µM	4.5 µM
O=C(Nc1ccc(S(=O)(=O)Nc2ccc(Cl)cc2)cc1)c1cc(O)c(O)c(O)c1 [N-(4-(4-Chlorophenylsulfamoyl)phenyl)galloylamide (9n)]	6 µM	2 µM
CCOc1ccc(NS(=O)(=O)c2ccc(NC(=O)/C=C/c3ccc(O)c(O)c3)cc2)cc1 [(E)-3-(3,4-Dihydroxyphenyl)-N-(4-(4-Ethoxylphenylsulfamoyl)phenyl)acrylamide (11j)]	35 µM	9 µM
CC(=O)Oc1ccc(/C=C/C(=O)Nc2ccc(S(=O)(=O)Nc3ccc(F)c(F)c3)cc2)cc1OC(C)=O [(E)-3-(3,4-Diacetoxyphenyl)-N-(4-(3,4-Difluorophenylsulfamoyl)phenyl)acrylamide (10b)]	60 µM	11 µM
